Measurements from patent US20190030018A1 (Celgene Corporation, priority 2017, published 2019).

Test system: 563 solid tumor cell lines
Test: Luminex assay in PRISM, 5 days treatment (AUC)
Format: cell-based
Set-up: AUC: scale not given here
Experimental: The AUC values provided in Table 80 below were calculated based on the Median Fluorescent Intensity values, the primary read out of the Luminex assay in PRISM. The following parameters were used in this assay: • 8 point dose was used in triplicate • max concentration of 10 μM was used with serial 4-fold dilutions (low of […]) • 563 adherent cell lines in 23 pools. • treatment duration was 5 days.

In the case of `O=C1CCC(N2Cc3cc(CNC(=O)C(F)(F)c4ccc(Cl)cc4)ccc3C2=O)C(=O)N1` (stereo not shown) [Compound 1, 2-(4-chlorophenyl)-N-((2-(2,6-dioxopiperidin-3-yl)-1-oxoisoindolin-5-yl)methyl)-2,2-difluoroacetamide], the AUC (HCC1954_BREAST) was 0.8107, the AUC (HCC4006_LUNG) was 0.8403 and the AUC (HCT15_LARGE_INTESTINE) was 0.554. For the same molecule, the AUC (HCT116_LARGE_INTESTINE) was 0.826, the AUC (HDQP1_BREAST) was 0.825 and the AUC (HEC1A_ENDOMETRIUM) was 0.832. It also gave an AUC (HEC6_ENDOMETRIUM) of 0.858, an AUC (HEC59_ENDOMETRIUM) of 0.794 and an AUC (HEC108_ENDOMETRIUM) of 0.812. The AUC (HEC151_ENDOMETRIUM) was 0.903, the AUC (HEC251_ENDOMETRIUM) was 0.698 and the AUC (HEC265_ENDOMETRIUM) was 0.831. For the same molecule, the AUC (HEP3B217_LIVER) was 0.596, the AUC (HEPG2_LIVER) was 0.511 and the AUC (HGC27_STOMACH) was 0.846. The AUC (HLF_LIVER) was 0.952, the AUC (HMC18_BREAST) was 0.847 and the AUC (HOS_BONE) was 0.854. It also gave an AUC (HS294T_SKIN) of 0.883, an AUC (HS729_SOFT_TISSUE) of 0.598 and an AUC (HS746T_STOMACH) of 0.428. It also gave an AUC (HS766T_PANCREAS) of 0.830, an AUC (HS852T_SKIN) of 0.710 and an AUC (HS939T_SKIN) of 0.836. It also gave an AUC (HS944T_SKIN) of 0.719, an AUC (HSC2_UPPER_AERODIGESTIVE_TRACT) of 0.597 and an AUC (HSC3_UPPER_AERODIGESTIVE_TRACT) of 0.834. The AUC (HT29_LARGE_INTESTINE) was 0.546, the AUC (HT55_LARGE_INTESTINE) was 0.571 and the AUC (HT144_SKIN) was 0.641. The AUC (HT1376_URINARY_TRACT) was 0.900, the AUC (HUCCT1_BILIARY_TRACT) was 0.533 and the AUC (HUH1_LIVER) was 0.508. For the same molecule, the AUC (HUH6_LIVER) was 0.867, the AUC (HUH28_BILIARY_TRACT) was 0.267 and the AUC (HUPT3_PANCREAS) was 0.876. It also gave an AUC (HUPT4_PANCREAS) of 0.5948, an AUC (IALM_LUNG) of 0.2481 and an AUC (IGR37_SKIN) of 0.8495. It also gave an AUC (IGROV1_OVARY) of 0.6978, an AUC (IM95_STOMACH) of 0.111 and an AUC (IPC298_SKIN) of 0.894. It also gave an AUC (ISHIKAWAHERAKLIO02ER_ENDOMETRIUM) of 0.8402, an AUC (ISTMES1_PLEURA) of 0.1381 and an AUC (ISTMES2_PLEURA) of 0.8192. It also gave an AUC (J82_URINARY_TRACT) of 0.8263, an AUC (JHH1_LIVER) of 0.469 and an AUC (JHH4_LIVER) of 0.680. It also gave an AUC (JHH5_LIVER) of 0.806, an AUC (JHH6_LIVER) of 0.449 and an AUC (JHH7_LIVER) of 0.778. It also gave an AUC (JHOC5_OVARY) of 0.865, an AUC (JHOM1_OVARY) of 0.833 and an AUC (JHOS2_OVARY) of 0.566. The AUC (JHUEM2_ENDOMETRIUM) was 0.761, the AUC (JIMT1_BREAST) was 0.816 and the AUC (JL1_PLEURA) was 0.591. The AUC (JMSU1_URINARY_TRACT) was 0.842, the AUC (K029AX_SKIN) was 0.834 and the AUC (KALS1_CENTRAL_NERVOUS_SYSTEM) was 0.838. The AUC (KE39_STOMACH) was 0.521, the AUC (KELLY_AUTONOMIC_GANGLIA) was 0.591 and the AUC (KMBC2_URINARY_TRACT) was 0.913. For the same molecule, the AUC (KMRC1_KIDNEY) was 0.842, the AUC (KMRC3_KIDNEY) was 0.990 and the AUC (KMRC20_KIDNEY) was 0.951. The AUC (KNS42_CENTRAL_NERVOUS_SYSTEM) was 0.826, the AUC (KNS60_CENTRAL_NERVOUS_SYSTEM) was 0.795 and the AUC (KNS62_LUNG) was 0.842. The AUC (KNS81_CENTRAL_NERVOUS_SYSTEM) was 0.808, the AUC (KP2_PANCREAS) was 0.767 and the AUC (KP3_PANCREAS) was 0.592. For the same molecule, the AUC (KP4_PANCREAS) was 0.447, the AUC (KPL1_BREAST) was 0.890 and the AUC (KPNYN_AUTONOMIC_GANGLIA) was 0.648. For the same molecule, the AUC (KU1919_URINARY_TRACT) was 0.926, the AUC (KURAMOCHI_OVARY) was 0.857 and the AUC (KYSE70_OESOPHAGUS) was 0.788. It also gave an AUC (KYSE140_OESOPHAGUS) of 0.883, an AUC (KYSE150_OESOPHAGUS) of 0.863 and an AUC (KYSE180_OESOPHAGUS) of 0.865. It also gave an AUC (KYSE270_OESOPHAGUS) of 0.835, an AUC (KYSE510_OESOPHAGUS) of 0.870 and an AUC (KYSE520_OESOPHAGUS) of 0.887. The AUC (LC1SQSF_LUNG) was 0.936, the AUC (LI7_LIVER) was 0.811 and the AUC (LK2_LUNG) was 0.768. It also gave an AUC (LN229_CENTRAL_NERVOUS_SYSTEM) of 0.758, an AUC (LNCAPCLONEFGC_PROSTATE) of 0.672 and an AUC (LOXIMVI_SKIN) of 0.905. It also gave an AUC (LS180_LARGE_INTESTINE) of 0.142, an AUC (LS411N_LARGE_INTESTINE) of 0.811 and an AUC (LS513_LARGE_INTESTINE) of 0.235. The AUC (LS1034_LARGE_INTESTINE) was 0.223, the AUC (LU99_LUNG) was 0.421 and the AUC (LXF289_LUNG) was 0.858. It also gave an AUC (MALME3M_SKIN) of 0.180, an AUC (MCAS_OVARY) of 0.845 and an AUC (MCF7_BREAST) of 0.831. For the same molecule, the AUC (MDAMB175VII_BREAST) was 0.524, the AUC (MDAMB231_BREAST) was 0.278 and the AUC (MDAMB435S_SKIN) was 0.845. It also gave an AUC (MELHO_SKIN) of 0.907, an AUC (MELJUSO_SKIN) of 0.845 and an AUC (MEWO_SKIN) of 0.267. For the same molecule, the AUC (MFE280_ENDOMETRIUM) was 0.881, the AUC (MFE296_ENDOMETRIUM) was 0.824 and the AUC (MFE319_ENDOMETRIUM) was 0.751. For the same molecule, the AUC (MG63_BONE) was 0.968, the AUC (MHHES1_BONE) was 0.984 and the AUC (MIAPACA2_PANCREAS) was 0.866. The AUC (MKN1_STOMACH) was 0.871, the AUC (MKN7_STOMACH) was 0.841 and the AUC (MKN45_STOMACH) was 0.338. For the same molecule, the AUC (MKN74_STOMACH) was 0.883.
